# Test results reported in patent publication US10201556B2, “Combination for use in treating diseases or conditions associated with melanoma, or treating diseases or conditions associated with activated B-raf pathway” (InteRNA Technologies B.V., priority 2012, dated 2019).
# Assays:
# A2058 melanoma cell line = assay: Anti-proliferative effect of miRNA mimics, MTS assay; format: cell-based; details: 10 nM mimic, 72 hours after transfection
# Protocol: (§1) The anti-proliferative effect of miRNA's in melanoma cell lines was determined with mature miRNA mimics from Ambion. For each cell line optimal growth and transfection conditions were determined prior to the experiment. Cells were plated in a 96-well plate at 3000 cells per well (100 uL) and were grown at 37 C, 5% CO2. Transfection mix (20 uL per well) was made for each miRNA mimic concentration with 0.3 uL (M249, M249-R4) or 0.5 uL (A375Hu, A375Hu-R1, A2058, RPMI-7951) X-TremeGene (Roche) per well (according to manufacturer's instructions) in Optimem (Invitrogen). Cells were transfected 24 hours after plating in triplicate. Medium was replaced 48 hours after transfection with fresh medium.
# M249 melanoma cell line = assay: as above; format: cell-based; details: 5 nM mimic, 72 hours after transfection
# Protocol: as §1
# [1] = system: M249-AR (M249-R4) melanoma cell line; assay: as above; format: cell-based; details: 30 nM mimic, 72 hours after transfection
# Protocol: as §1
# [2] = system: RPMI-7951 melanoma cell line; assay: as above; format: cell-based; details: 10 nM mimic, 72 hours after transfection
# Protocol: as §1
# ERK1 = assay: Western blotting of ERK1 protein levels; format: cell-based, human
# Protocol: Transfection was performed as described in Example 4 in 6-well format. Proteins were isolated using RIPA buffer (50 mM Tris pH 8.0, 150 mM NaCL, 1% NP-40, 0.5% Sodium deoxycholate, 0.1% SDS), supplemented with Protease Inhibitor Cocktail (Sigma) and Halt™ Phosphatase Inhibitor Cocktail (Pierce/Thermo Scientific). Fifteen μg protein was loaded on a 12% Mini-PROTEAN® TGX™ Precast Gel (Bio-Rad), and proteins were transferred to Immun-Blot PVDF Membrane (Bio-Rad). Membranes were blocked in 5% milk or 5% BSA in TBS-T, and incubated O/N at 4° C. with primary antibodies against α-tubulin (1:5000), BRAF, pERK1/2, CDK4, RRM2 (all 1:1000), BCL-2 (1:500) (Santa Cruz), total-ERK1/2 (1:2000), BIRC5, AURKB (1:1000) (Cell Signaling), ERK1 (1:2000) (GeneTex). After incubation with appropriate secondary antibodies and western blot chemiluminescence substrate ECL (Pierce/Thermo Scientific), membranes were exposed to CL-XPosure Film (Pierce/Thermo Scientific).
# [3] = system: BRAFV600E mutant melanoma cell lines A2058, RPMI-7951 and M233; assay: MTS cell viability after miR-3157 mimic transfection, intrinsically resistant lines; format: cell-based; details: A2058, RPMI-7951, M233; 10 nM mimic, 72 hours (FIG. 11b)
# Protocol: (§2) miR-3157 broadly affects melanoma cell line viability. Melanoma cell lines were divided into those that have the BRAFV600E mutation and are sensitive (a), intrinsically resistant (b) or acquired resistance to vemurafenib (c). Cell lines were transfected in triplicate with control miRNA or miR-3157 mimics (10 nM; n=2). Mock is transfectant only. Cell viability was determined using the MTS assay and calculated relative to mock transfected cells.
# (§3) A375 cells were obtained from the Hubrecht Institute (Utrecht, The Netherlands); SKMEL-28, A2058 and RPMI-7951 were from the ATCC; SKMEL-57 was a gift from Dr. Patricia Groenen (Radboud University Nijmegen Medical Centre, The Netherlands); for cell line characteristics of M249, M249-AR4, M233 and M376 see (Atefi et al. 2011). A375-R, with in vitro acquired resistance to vemurafenib, was established in our lab by clonal selection of cells continually exposed to 1 μM vemurafenib. A375, A375-R, SKMEL-28, A2058 and SKMEL-57 were grown in DMEM GlutaMAX™-I (Gibco®), all other cell lines in RPMI-1640 (Gibco®). Media was supplemented with 10% FBS (Sigma), and cells were maintained in a humidified 37° C. incubator (Thermo Scientific) with 5% CO2. […]
# (§4) Cells were seeded in 96-well plates and transfected the next day. […] Read-out was performed at 490 nm on a Multiskan FC plate reader (Thermo Scientific) at 72 hours post transfection.
# [4] = system: A375-R, M249-AR4 and M376; assay: MTS cell viability after miR-3157 mimic transfection, acquired resistance lines; format: cell-based; details: 10 nM mimic, 72 hours (FIG. 11c)
# Protocol: as §2, §3, §4
# 3′UTR of ERK1 = assay: 3′UTR Luciferase assay in HeLa cells; format: cell-based; details: 10 nM mimic, 24 hrs
# Protocol: (§5) The 3′UTR sequences (Table 11) were synthesized by IDT Technologies, and cloned into psiCHECK™-2 (Promega). HeLa cells (5×10^4) were seeded in 24-well plates, and the next day transfected with 100 ng/well 3′UTR psiCHECK™-2 construct and 10 nM miR-3157 mimics, or control miRNA using Lipofectamine 2000 Transfection Reagent (Invitrogen). After 24 hrs cells were lysed using Passive Lysis Buffer and luciferase activity was measured using the Dual-Luciferase Reporter Assay System (Promega) and the Glomax-Multi Detection system (Promega) in a 96-well format according to the manufacturer's protocol. The Renilla luciferase signal was normalized to background Firefly luciferase, and changes in Renilla luciferase activity in the miR-3157 transfected cells calculated relative to the Renilla signal in control mimic transfected cells.
# 3′UTR of RRM2 = assay: 3′UTR Luciferase assay in HeLa cells; format: cell-based; details: 10 nM mimic, 24 hrs
# Protocol: as §5
substance,measurement,setting,value
"hsa-miR-3157-5p: mature miRNA mimic, SEQ ID NO 6 UUCAGCCAGGCUAGUGCAGUCU (listed as RNA, chemistry not given here)",A2058 % Viability 10 nM,A2058 melanoma cell line,43%
same,M249 % Viability 5 nM,M249 melanoma cell line,42%
same,M249-AR % Viability 30 nM,[1],53%
same,RPMI-7951 % Viability 10 nM,[2],26%
same,ERK1 protein levels,"ERK1; A375 cells, increasing concentrations of mimic (FIG. 12c)",most pronounced
same,ERK1 protein levels,"ERK1; A2058, M249, M249-AR4 and M376, increasing concentrations of mimic (FIG. 14a)",not very strongly affected
same,cell viability relative to mock transfected cells,[3],viability was reduced
same,cell viability relative to mock transfected cells,[4],reduced viability
same,"luciferase activity, ERK1 3′UTR with mutated miR-3157 binding site",3′UTR of ERK1,remained unaffected
same,"luciferase activity, ERK1 3′UTR unmodified",3′UTR of ERK1; relative to control mimic,reduced luciferase activity
same,"luciferase activity, RRM2 3′UTR with mutated miR-3157 binding site",3′UTR of RRM2,remained unaffected
same,"luciferase activity, RRM2 3′UTR unmodified",3′UTR of RRM2; relative to control mimic,reduced luciferase activity
